Reference: patent US20260216163A1, “CANCER COMBINATION THERAPY INCLUDING A FLT3-INHIBITOR” (RYVU THERAPEUTICS S.A., priority 2022, published 2026)
Read-outs that look alike come from different tables or passages of the source.

Experiments:
[1] = system: MOLM-13 (FLT3 ITD) cell line xenograft; test: in vivo AML xenograft study, tumor volume inhibition; details: MOLM-13 xenograft, per os from day 15, MEN 25 mg/kg Q1 × 14 d, Gilteritinib 3 mg/kg Q1 × 14 d, combination each as above
Procedure: For the AML xenograft model, 10×10^6 MOLM-13 cells were re-suspended in 0.2 ml of BME type III (Trevigen) at 5.6 mg/ml+DPBS (1:1) and then injected subcutaneously into the right flank of 6-8 weeks old female CD-1 mice (Charles River, Calco, Italy).
After injection, mice were maintained in micro isolator cages under continuously monitored environmental conditions. Drinking water and specific sterilized diet (VRF1, Charles River) were supplied ad libitum. Environmental conditions, as well as the procedures for housing and handling the animals, complied with the UKCCCR guideline (Workman P et al., 2010) and the European Convention for the protection of vertebrate animals used for experimental and other scientific purposes (Directive 2010/63/EU; 2010). Twice a week, tumor growth and body weight were evaluated and recorded.
(§3) The outcome evaluation was carried out as follows: tumor volumes were measured by caliper, and tumor masses were calculated using the following formula: [length (mm)×width^2 (mm)×d]/2, assuming density, d=1 mg/mm^3 for tumor tissue (Teicher B. Totowa, 1997).
The treatment efficacy was assessed as TVI % in treated versus control mice, using the following formula: TVI %=(1−Volume Average of treated tumor mass/Volume Average of control tumor)*100. […]

[2] = system: MV4-11 (FLT3 ITD) cell line xenograft; test: as above; details: MV4-11 xenograft, per os from day 19, MEN 25 mg/kg Q1 × 14 d, Gilteritinib 3 mg/kg Q1 × 22 d, combination each as above
Procedure: For the AML xenograft model, 10×10^6 MV4-11 cells were re-suspended in 0.2 ml of BME type III (Trevigen) at 5.6 mg/ml+DPBS (1:1) and then injected subcutaneously into the right flank of 6-8 weeks old female SCID mice (Charles River, Calco, Italy).
After injection, mice were maintained in micro isolator cages under continuously monitored environmental conditions. Drinking water and specific sterilized diet (VRF1, Charles River) were supplied ad libitum. […] Twice a week, tumor growth and body weight were evaluated and recorded.
as §3
The treatment efficacy was assessed as TVI % in treated versus control mice, using the following formula: TVI %=(1−Volume Average of treated tumor mass/Volume Average of control tumor)*100.
Mice were sacrificed when tumors reached a volume of around 10% of total body weight or when mice's body weight decreased by more than 20% compared to control animals for 7 days or more. Animals were euthanized with carbon dioxide exposure according to the standard procedures (Annex IV of Directive 2010/63/EU; 2010).
GraphPad Prism software (GraphPAD Software Inc., California) was used for statistical analysis. Statistical differences were considered to be significant at p-value<0.05 using the two-tailed Mann-Whitney rank test.

[3] = system: MV4-11 cells (FLT3 ITD); test: in vitro standard cytotoxicity (MTS, 72 h), MEN and Gilt single agent or combination, Combination Index; assay type: cell-based, human; details: for IC50: Homo sapiens, read-out: IC50 dose level (single agent cytotoxicity)
Procedure: (§1) In an in vitro standard cytotoxicity experiment, two AML cell lines (MV4-11 [FLT3 ITD] and MOLM-13 [FLT3 ITD]) were treated for 72 hours with MEN and Gilt (a Type I inhibitor) either as a single agent or in combination.
(§2) Human acute myeloid leukemia cell lines MV4-11 and MOLM-13 were obtained from DSMZ, Braunschweig, Germany (ACC102 and ACC554). […] All cells were incubated at 37° C., 5% CO2, 80% relative humidity.

[4] = system: MOLM-13 cells (FLT3 ITD); test: as above; assay type: cell-based, human; details: MTS (Table 2); for IC50: Homo sapiens, read-out: IC50 dose level (single agent cytotoxicity)
Procedure: as §1, §2

[5] = system: KG-1 cells (FLT wildtype); test: as above; assay type: cell-based, human; details: for IC50: Homo sapiens
Excerpt: Human acute myeloid leukemia cell line KG-1 was obtained from DSMZ, Braunschweig, Germany (ACC14).

[6] = system: MOLM-13 cells; test: in vitro standard cytotoxicity (MTS, 72 h), MEN and Quizartinib single agent or combination, Combination Index; details: for IC50: Homo sapiens, MOLM-13, 72 h, read-out: IC50 (single agent cytotoxicity)
Procedure: (§4) The synergistic effect of the combination was measured according to the Combination Index calculation (Chou T C, 2006).
(§5) MOLM-13 cells were grown in RPMI with 20% FBS and incubated at 37° C., 5% CO2, 80% relative humidity.
(§6) 20907) were dissolved in DMSO, divided into aliquots and stored at −80° C. until use. Stock solutions were added at appropriate concentration in culture medium before the addition to cells.
(§7) For cytotoxicity studies cells were seeded at appropriate density (50.000 cells/well) prior to addition of MEN and Quiz at day 0. […] After 72 hours, CellTiter 96 Aqueous One Solution Reagent (MTS) (Promega, Madison. WI, USA) was added to assess the cell viability. Fluorescence was measured 4 h later using Tecan Infinite M200 (Tecan Trading AG, Switzerland), recording absorbance at 490 nm. Quantitative measurement of synergism/antagonism was evaluated with Combination Index (CI) on the Fraction affected (Fa) using CompuSyn (ComboSyn, Inc. Paramus, NJ, USA) (Chou T C, 2006).

[7] = system: MOLM-13 cells
Procedure: as §4, §5, §6, §7

[8] = MOLM-13 cells, 72 h, MTS (Table 5)

Structure (SMILES) | TVI % Day 29 [1] | TVI % Day 33 [2] | TVI % Day 40 [2] | IC10 dose level (single agent cytotoxicity) [3] | IC25 dose level (single agent cytotoxicity) [3] | IC75 dose level (single agent cytotoxicity) [3] | IC50 [3] | IC50 [4] | IC10 dose level (single agent cytotoxicity) [4] | IC25 dose level (single agent cytotoxicity) [4] | IC75 dose level (single agent cytotoxicity) [4] | IC10 (single agent cytotoxicity) [5] | IC25 (single agent cytotoxicity) [5] | IC75 (single agent cytotoxicity) [5] | IC50 [5] | IC50 [6] | other results
CCc1nc(C(N)=O)c(Nc2ccc(N3CCC(N4CCN(C)CC4)CC3)c(OC)c2)nc1NC1CCOCC1 [Gilteritinib] | 60.1% | 84.1% | 87.6% | 0.0022 µM | 0.0042 µM | 0.0140 µM | 7.9 nM | 11 nM | 0.0014 µM | 0.0040 µM | 0.0320 µM | 0.03534 µM | 0.1502 µM | 2.7120 µM | 638 nM | – | –
CC(C)n1c(C2CCNCC2)nc2c([N+](=O)[O-])c(Br)c(Br)cc21 [MEN, 5,6-dibromo-4-nitro-2-(piperidin-4-yl)-1-(propan-2-yl)-1H-1,3-benzodiazole] | 38.8% | 57.2% | 53.1% | 0.151 µM | 0.293 µM | 1.103 µM | 569 nM | 510 nM | 0.087 µM | 0.21 µM | 1.23 µM | 0.05748 µM | 0.203 µM | 2.530 µM | 717 nM | 510 nM | IC10 (single agent cytotoxicity) [6, 8]: 0.08729 µM; IC25 (single agent cytotoxicity) [6, 8]: 0.3222 µM; IC75 (single agent cytotoxicity) [6, 8]: 1.234 µM
CC(C)(C)c1cc(NC(=O)Nc2ccc(-c3cn4c(n3)sc3cc(OCCN5CCOCC5)ccc34)cc2)no1 [QUIZ, Quizartinib] | – | – | – | – | – | – | – | – | – | – | – | – | – | – | – | 0.946 nM | IC10 (single agent cytotoxicity) [7]: 374 pM; IC25 (single agent cytotoxicity) [7]: 595 pM; IC75 (single agent cytotoxicity) [7]: 1.504 nM
